Experimental data: ChEMBL document CHEMBL1159149, “Phenalene metabolites from eichhornia crassipes” (1992)

The molecules below were run on Porphyridium aerugineum (assay: Compound at a conc of 2 umol was tested for antialgal activity against Porphyridium aerugineum in filter paper-petri dish bioassay).
Format: functional
Work on COc1cc2ccc(-c3ccccc3)c3c2c(c1OC)CCC3OC (stereo not drawn) yielded an Inhibition zone of 25 mm.
Work on COc1ccc2c(-c3ccccc3)cc(OC)c3c2c1CCC3OC (stereo not drawn) yielded an Inhibition zone of 25 mm.
COc1ccc(-c2cc(OC)c3c4c(c(OC)ccc24)CCC3OC)cc1 (stereo not drawn) showed an Inhibition zone of 25 mm.
